Test results reported in patent US11236120B2, “Azithromycin derivatives with epithelial barrier enhancement properties” (EpiEndo Pharmaceuticals ehf, priority 2015, dated 2022).
Converted amounts (≈) assume the structure as drawn.

Columns and labels:
[1] = Solubility in 10 mM phosphate buffer (pH 7.4); format: physicochemical; conditions: pH 7.4, aqueous buffer, kinetic from dmso stock, 60 minutes at room temperature, filtered, read-out: MTS Solubility in Buffer (pH 7.4)
Method: Solubility in 10 mM Phosphate Buffer (pH 7.4)
The solubility sample testing of the compounds was performed by in phosphate buffer at pH 7.4 and using HPLC-MS detection. A stock solution of […] in DMSO was prepared for each compound. For the solubility test sample, 100 μL of the stock solution was diluted with 3.9 mL of a 10 mM phosphate buffer at […] to a final concentration of […]. The buffer solution was left to stand for 60 minutes at room temperature and then filtered. The filtrate was analyzed against two calibration points of the same analyte prepared at […] using HPLC-MS. These calibration points were prepared from the same stock solution as the solubility sample by diluting it with DMSO:H2O (1:1) 1:40 and then again 1:10. The chromatographic signal area of the analyte in the solubility sample was then compared to the chromatographic signal area of the two calibration samples.
(§1) The chromatographic separation was performed on a Waters HPLC-MS system using a 50×2.1 mm×Bridge C18 column and a gradient elution of Water with 0.1% formic acid and acetonitrile with 0.1% formic acid. The analytes were analyzed in positive electro-spray mode using the (M+H)^+ in single ion recording.

[2] = Stability in human plasma; format: in vitro ADME; conditions: room temperature
Method: (§2) Stability in Mouse and Human Plasma
(§3) The stability of the compounds in mouse and human plasma was performed using protein precipitation as sample clean-up and HPLC-MS detection. The plasma stability studies of the compounds was performed at room temperature for up to 4 hours. A stock solution of […] in DMSO was prepared for each compound. For the plasma stability samples, 100 μL of the stock solution was diluted with 3.9 mL of either mouse or human plasma to a final concentration of […]. The plasma was left to equilibrate for 10 minutes at room temperature before the first analysis. For each analyzed time point ([…]) a 100 μL aliquot of the plasma was removed and protein precipitation (PPT) was performed on the aliquot by adding 900 μL of (ACN:DMSO) 95:5. The precipitated sample was shaken for 60 seconds and then centrifuged. The supernatant was transferred to an HPLC vial and analyzed using HPLC-MS. The chromatographic signal area of the samples at the different time points were then compared against each other, by setting the initial analysis at t=0 min as 100% and then calculating the %-value for each subsequent time point.
as §1

[3] = Stability in mouse plasma; format: in vitro ADME; conditions: room temperature
Method: as §2, §3, §1

Row | Structure (SMILES) | solubility at 60 min [1] | Degradation in Human Plasma at RT [2] | Degradation in Mouse Plasma at RT [3]
1 | CC[C@H]1OC(=O)[C@H](C)[C@@H](O)[C@H](C)[C@@H](O[C@@H]2O[C@H](C)C[C@H](N(C)C(=O)CNC(=O)OCc3ccccc3)[C@H]2O)[C@](C)(O)C[C@@H](C)CN(C)[C@H](C)[C@@H](O)[C@]1(C)O [Example 27, Benzyl N-[2-[[(2S,3R,4S,6R)-2-[[(2R,3S,4R,5R,8R,10R,11R,12S,13S,14R)-2-ethyl-3,4,10,13-tetrahydroxy-3,5,6,8,10,12,14-heptamethyl-15-oxo-1-oxa-6-azacyclopentadec-11-yl]oxy]-3-hydroxy-6-methyl-tetrahydropyran-4-yl]-methyl-amino]-2-oxo-ethyl]carbamate] | 0.3 µM (≈ 0.23 µg/mL) | Stable | 3 % per hour
2 | CC[C@H]1OC(=O)[C@H](C)[C@@H](O)[C@H](C)[C@@H](O[C@@H]2O[C@H](C)C[C@H](N(C)C(=O)c3ccccc3)[C@H]2O)[C@](C)(O)C[C@@H](C)CN(C)[C@H](C)[C@@H](O)[C@]1(C)O [Example 7, N-[(2S,3R,4S,6R)-2-[[(2R,3S,4R,5R,8R,10R,11R,12S,13S,14R)-2-ethyl-3,4,10,13-tetrahydroxy-3,5,6,8,10,12,14-heptamethyl-15-oxo-1-oxa-6-azacyclopentadec-11-yl]oxy]-3-hydroxy-6-methyl-tetrahydropyran-4-yl]-N-methyl-benzamide] | 0.23 µM (≈ 0.157 µg/mL) | Stable | –
3 | CC[C@H]1OC(=O)[C@H](C)[C@@H](O)[C@H](C)[C@@H](O[C@@H]2O[C@H](C)C[C@H](N(C)C(=O)Cc3ccccc3)[C@H]2O)[C@](C)(O)C[C@@H](C)CN(C)[C@H](C)[C@@H](O)[C@]1(C)O [Example 29, N-[(2S,3R,4S,6R)-2-[[(2R,3S,4R,5R,8R,10R,11R,12S,13S,14R)-2-ethyl-3,4,10,13-tetrahydroxy-3,5,6,8,10,12,14-heptamethyl-15-oxo-1-oxa-6-azacyclopentadec-11-yl]oxy]-3-hydroxy-6-methyl-tetrahydropyran-4-yl]-N-methyl-2-phenyl-acetamide] | 0.77 µM (≈ 0.535 µg/mL) | 2 % per hour | Stable
4 | CC[C@H]1OC(=O)[C@H](C)[C@@H](O)[C@H](C)[C@@H](O[C@@H]2O[C@H](C)C[C@H](N(C)C)[C@H]2OC(=O)CCC(=O)O)[C@](C)(O)C[C@@H](C)CN(C)[C@H](C)[C@@H](O)[C@]1(C)O [Example 17, 4-[(2S,3R,4S,6R)-4-(dimethylamino)-2-[[(2R,3S,4R,5R,8R,10R,11R,12S,13S,14R)-2-ethyl-3,4,10,13-tetrahydroxy-3,5,6,8,10,12,14-heptamethyl-15-oxo-1-oxa-6-azacyclopentadec-11-yl]oxy]-6-methyl-tetrahydropyran-3-yl]oxy-4-oxo-butanoic acid] | 0.66 µM (≈ 0.456 µg/mL) | 20 % per hour | ca. 20% per hour
5 | CCc1ccc(C(=O)O[C@H]2[C@H](O[C@@H]3[C@@H](C)[C@H](O)[C@@H](C)C(=O)O[C@H](CC)[C@@](C)(O)[C@H](O)[C@@H](C)N(C)C[C@H](C)C[C@@]3(C)O)O[C@H](C)C[C@@H]2N(C)C)cc1 [Example 22, [(2S,3R,4S,6R)-4-(dimethylamino)-2-[[(2R,3S,4R,5R,8R,10R,11R,12S,13S,14R)-2-ethyl-3,4,10,13-tetrahydroxy-3,5,6,8,10,12,14-heptamethyl-15-oxo-1-oxa-6-azacyclopentadec-11-yl]oxy]-6-methyl-tetrahydropyran-3-yl]4-ethylbenzoate] | 1.43 µM (≈ 1.03 µg/mL) | Stable | Stable
6 | CC[C@H]1OC(=O)[C@H](C)[C@@H](O)[C@H](C)[C@@H](O[C@@H]2O[C@H](C)C[C@H](N(C)C(=O)COCc3ccccc3)[C@H]2O)[C@](C)(O)C[C@@H](C)CN(C)[C@H](C)[C@@H](O)[C@]1(C)O [Example 26, 2-benzyloxy-N-[(2S,3R,4S,6R)-2-[[(2R,3S,4R,5R,8R,10R,11R,12S,13S,14R)-2-ethyl-3,4,10,13-tetrahydroxy-3,5,6,8,10,12,14-heptamethyl-15-oxo-1-oxa-6-azacyclopentadec-11-yl]oxy]-3-hydroxy-6-methyl-tetrahydropyran-4-yl]-N-methyl-acetamide] | 0.3 µM (≈ 0.217 µg/mL) | Stable | 4 % per hour
7 | CC[C@H]1OC(=O)[C@H](C)[C@@H](O)[C@H](C)[C@@H](O[C@@H]2O[C@H](C)C[C@H](N(C)C)[C@H]2OC(=O)c2ccc(-c3ccc(S(C)(=O)=O)cc3)cc2)[C@](C)(O)C[C@@H](C)CN(C)[C@H](C)[C@@H](O)[C@]1(C)O [Example 12, [(2S,3R,4S,6R)-4-(dimethylamino)-2-[[(2R,3S,4R,5R,8R,10R,11R,12S,13S,14R)-2-ethyl-3,4,10,13-tetrahydroxy-3,5,6,8,10,12,14-heptamethyl-15-oxo-1-oxa-6-azacyclopentadec-11-yl]oxy]-6-methyl-tetrahydropyran-3-yl]4-(4-methylsulfonylphenyl) benzoate] | 0.3 µM (≈ 0.255 µg/mL) | 2 % per hour | 2 % per hour
8 | CC[C@H]1OC(=O)[C@H](C)[C@@H](O)[C@H](C)[C@@H](O[C@@H]2O[C@H](C)C[C@H](N(C)C(=O)CCOc3ccccc3)[C@H]2O)[C@](C)(O)C[C@@H](C)CN(C)[C@H](C)[C@@H](O)[C@]1(C)O [Example 28, N-[(2S,3R,4S,6R)-2-[[(2R,3S,4R,5R,8R,10R,11R,12S,13S,14R)-2-ethyl-3,4,10,13-tetrahydroxy-3,5,6,8,10,12,14-heptamethyl-15-oxo-1-oxa-6-azacyclopentadec-11-yl]oxy]-3-hydroxy-6-methyl-tetrahydropyran-4-yl]-N-methyl-3-phenoxy-propanamide] | 1.42 µM (≈ 1.03 µg/mL) | Stable | Stable
9 | CC[C@H]1OC(=O)[C@H](C)[C@@H](O)[C@H](C)[C@@H](O[C@@H]2O[C@H](C)C[C@H](N(C)C)[C@H]2OC(=O)c2ccc3ccccc3c2)[C@](C)(O)C[C@@H](C)CN(C)[C@H](C)[C@@H](O)[C@]1(C)O [Example 24, [(2S,3R,4S,6R)-4-(dimethylamino)-2-[[(2R,3S,4R,5R,8R,10R,11R,12S,13S,14R)-2-ethyl-3,4,10,13-tetrahydroxy-3,5,6,8,10,12,14-heptamethyl-15-oxo-1-oxa-6-azacyclopentadec-11-yl]oxy]-6-methyl-tetrahydropyran-3-yl]naphthalene-2-carboxylate] | 2.4 µM (≈ 1.79 µg/mL) | Stable | Stable
10 | CC[C@H]1OC(=O)[C@H](C)[C@@H](O)[C@H](C)[C@@H](O[C@@H]2O[C@H](C)C[C@H](N(C)C(=O)CCC(=O)O)[C@H]2O)[C@](C)(O)C[C@@H](C)CN(C)[C@H](C)[C@@H](O)[C@]1(C)O [Example 18, 4-[[(2S,3R,4S,6R)-2-[[(2R,3S,4R,5R,8R,10R,11R,12S,13S,14R)-2-ethyl-3,4,10,13-tetrahydroxy-3,5,6,8,10,12,14-heptamethyl-15-oxo-1-oxa-6-azacyclopentadec-11-yl]oxy]-3-hydroxy-6-methyl-tetrahydropyran-4-yl]-methyl-amino]-4-oxo-butanoic acid] | 0.4 µM (≈ 0.271 µg/mL) | Stable | –
11 | CC[C@H]1OC(=O)[C@H](C)[C@@H](O)[C@H](C)[C@@H](O[C@@H]2O[C@H](C)C[C@H](NC)[C@H]2O)[C@](C)(O)C[C@@H](C)CN(C)[C@H](C)[C@@H](O)[C@]1(C)O [Example 30, (2R,3S,4R,5R,8R,10R,11R,12S,13S,14R)-2-ethyl-3,4,10,13-tetrahydroxy-11-[(2S,3R,4S,6R)-3-hydroxy-6-methyl-4-(methylamino)tetrahydropyran-2-yl]oxy-3,5,6,8,10,12,14-heptamethyl-1-oxa-6-azacyclopentadecan-15-one] | 0.49 µM (≈ 0.283 µg/mL) | Stable | Stable
